The structures appear in SMILES notation.

This test deals with T1, factor D (Homo sapiens, UniProt P00746).
T1 construct: made in house; host or cells: E. coli
T1 sequence (P00746 26-253): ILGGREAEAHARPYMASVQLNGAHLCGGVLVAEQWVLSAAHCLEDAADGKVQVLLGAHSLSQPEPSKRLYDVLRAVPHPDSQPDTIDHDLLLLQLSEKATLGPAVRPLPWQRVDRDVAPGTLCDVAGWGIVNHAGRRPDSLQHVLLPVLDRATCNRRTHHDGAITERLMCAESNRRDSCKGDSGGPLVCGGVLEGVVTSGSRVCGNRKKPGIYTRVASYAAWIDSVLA
The test can be described thus: factor D inhibition assay of Biological Example 2. Format: biochemical.
What is called IC50 is the midpoint of a concentration-inhibition curve. A high value points to weaker potency in that assay. Consider `N[C@H](CO)c1cccc(-c2cc(COc3ccccc3CC(=O)O)cc(OCC3CC3)c2)c1` [Example 147-B, (S)-2-(2-((3′-(1-Amino-2-hydroxyethyl)-5-(cyclopropylmethoxy)-[1,1′-biphenyl]-3-yl)methoxy)phenyl)acetic acid], for which the IC50 was determined as 5 nM.
`C[C@@H](N)c1cccc(-c2cc(COc3ccccc3CC(=O)O)cc(OCC3CC3)c2)c1F` [Example 148, (R)-2-(2-((3′-(1-Aminoethyl)-5-(cyclopropylmethoxy)-2′-fluoro-[1,1′-biphenyl]-3-yl)methoxy)phenyl)acetic acid]: the midpoint of inhibition, the IC50, lay at 9 nM.
As to `Cc1ccc(COc2ccccc2CC(=O)O)cc1-c1cccc(CN)c1F` [Example 149, 2-(2-((3′-(Aminomethyl)-2′-fluoro-6-methyl-[1,1′-biphenyl]-3-yl)methoxy)phenyl)acetic acid], the IC50 is 44 nM.
Compound `C[C@@H](N)c1cccc(-c2cc(COc3ccccc3CC(=O)O)cc(NCC3CC3)c2)c1F` [Example 150-C, (R)-2-(2-((3′-(1-Aminoethyl)-5-((cyclopropylmethyl)amino)-2′-fluoro-[1,1′-biphenyl]-3-yl)methoxy)phenyl)acetic acid] gave a 50% inhibitory concentration (IC50) of 4 nM.
Consider `CCNc1cc(COc2ccccc2CC(=O)O)cc(-c2cccc([C@@H](C)N)c2F)c1` [Example 151, (R)-2-(2-((3′-(1-aminoethyl)-5-(ethylamino)-2′-fluoro-[1,1′-biphenyl]-3-yl)methoxy)phenyl)acetic acid], for which the IC50 worked out at 6 nM.
`CC(C)Nc1cc(COc2ccccc2CC(=O)O)cc(-c2cccc([C@@H](C)N)c2F)c1` [Example 152, (R)-2-(2-((3′-(1-aminoethyl)-2′-fluoro-5-(isopropylamino)-[1,1′-biphenyl]-3-yl)methoxy)phenyl)acetic acid] came in with an IC50 of 11 nM.
`C[C@@H](N)c1cccc(-c2cc(COc3ccccc3CC(=O)O)cc(NC[C@H]3CCCO3)c2)c1F` [Example 153, 2-(2-((3′-((R)-1-Aminoethyl)-2′-fluoro-5-((((R)-tetrahydrofuran-2-yl)methyl)amino)-[1,1′-biphenyl]-3-yl)methoxy)phenyl)acetic acid] registered an IC50 of 4 nM.
As to `NCc1ccnc(-c2cccc(COc3ccccc3CC(=O)O)c2)n1` [Example 158-C, 2-(2-((3-(4-(Aminomethyl)pyrimidin-2-yl)benzyl)oxy)phenyl)acetic acid], the midpoint of inhibition, the IC50, lay at 1790 nM.
The compound `NCc1cccc(-c2cccc(COc3ccccc3CC(=O)O)n2)c1` [Example 160, 2-(2-((6-(3-(aminomethyl)phenyl)pyridin-2-yl)methoxy)phenyl)acetic acid] gave an IC50 of 1140 nM.
The compound `NCc1cccc(-c2ccnc(COc3ccccc3CC(=O)O)c2)c1` [Example 164, 2-(2-((4-(3-(Aminomethyl)phenyl)pyridin-2-yl)methoxy)phenyl)acetic acid] yielded an IC50 of 13 nM.
`NCc1cccc(-c2ccc(C(F)(F)F)c(COc3ccccc3CC(=O)O)c2)c1` [Example 165, 2-(2-((3′-(Aminomethyl)-4-(trifluoromethyl)-[1,1′-biphenyl]-3-yl)methoxy)phenyl)acetic acid] had an IC50 of 21 nM.
`NCc1cccc(-c2ccc(F)c(COc3ccccc3CC(=O)O)c2)c1` [Example 166, 2-(2-((3′-(Aminomethyl)-4-fluoro-[1,1′-biphenyl]-3-yl)methoxy)phenyl)acetic acid] came in with an IC50 of 23 nM.
In the case of `N[C@H](CO)c1cccc(-c2ccc(C(F)(F)F)c(COc3ccccc3CC(=O)O)c2)c1` [Example 167, (S)-2-(2-((3′-(1-Amino-2-hydroxyethyl)-4-(trifluoromethyl)-[1,1′-biphenyl]-3-yl)methoxy)phenyl)acetic acid], the IC50 came to 30 nM.
The compound `NCc1cccc(-c2cccc(COc3ccc(Br)cc3CC(=O)O)c2)c1` [Example 168, 2-(2-((3′-(Aminomethyl)-[1,1′-biphenyl]-3-yl)methoxy)-5-bromophenyl)acetic acid] yielded an IC50 of 27 nM.
`COC[C@@H](N)c1cccc(-c2cccc(COc3ccccc3CC(=O)O)c2)c1` [Example 169, (S)-2-(2-((3′-(1-Amino-2-methoxyethyl)-[1,1′-biphenyl]-3-yl)methoxy)phenyl)acetic acid]: the IC50 was determined as 33 nM.
With `N[C@H](CO)c1cccc(-c2ccnc(COc3ccccc3CC(=O)O)c2)c1` [Example 170, (S)-2-(2-((4-(3-(1-Amino-2-hydroxyethyl)phenyl)pyridin-2-yl)methoxy)phenyl)acetic acid] the figure was 22 nM.
Regarding `CCOC[C@@H](N)c1cccc(-c2cccc(COc3ccccc3CC(=O)O)c2)c1` [Example 173, (S)-2-(2-((3′-(1-Amino-2-ethoxyethyl)-[1,1′-biphenyl]-3-yl)methoxy)phenyl)acetic acid], the IC50 was found to be 147 nM.
`NCc1cccc(-c2cccc(COc3c(Br)cccc3CC(=O)O)c2)c1` [Example 174, 2-(2-((3′-(Aminomethyl)-[1,1′-biphenyl]-3-yl)methoxy)-3-bromophenyl)acetic acid] came in with an IC50 of 111 nM.
`NCc1ccc(F)c(-c2ccnc(COc3ccccc3CC(=O)O)c2)c1` [Example 176, 2-(2-((4-(5-(Aminomethyl)-2-fluorophenyl)pyridin-2-yl)methoxy)phenyl)acetic acid] registered an IC50 of 5740 nM.
Compound `Cc1ccc(S(=O)(=O)n2ncc3c(COc4ccccc4CC(=O)O)cc(-c4cccc(CN)c4)cc32)cc1` [Example 178, 2-(2-((6-(3-(Aminomethyl)phenyl)-1-tosyl-1H-indazol-4-yl)methoxy)phenyl)acetic acid] came in with an IC50 of 2 nM.
With `NCc1cccc(-c2cc(COc3ccccc3CC(=O)O)c3cn[nH]c3c2)c1` [Example 179, 2-(2-((6-(3-(Aminomethyl)phenyl)-1H-indazol-4-yl)methoxy)phenyl)acetic acid] the figure was 4 nM.
`C[C@@H](N)c1cccc(-c2ccnc(COc3ccccc3CC(=O)O)c2)c1` [Example 180, (R)-2-(2-((4-(3-(1-Aminoethyl)phenyl)pyridin-2-yl)methoxy)phenyl)acetic acid]: 149 nM corresponded to half-maximal inhibition (IC50).
Turning to `NCc1cccc(-c2ccnc(COc3ccccc3CC(=O)O)c2)c1F` [Example 182, 2-(2-((4-(3-(Aminomethyl)-2-fluorophenyl)pyridin-2-yl)methoxy)phenyl)acetic acid], the IC50 was 8 nM.
Take `COC[C@@H](N)c1cccc(-c2ccnc(COc3ccccc3CC(=O)O)c2)c1` [Example 184, (S)-2-(2-((4-(3-(1-amino-2-methoxyethyl)phenyl)pyridin-2-yl)methoxy)phenyl)acetic acid]: the IC50 was 436 nM.
For the compound `Cc1cc(-c2cccc([C@H](N)CO)c2)cc(COc2ccccc2CC(=O)O)n1` [Example 185, (S)-2-(2-((4-(3-(1-Amino-2-hydroxyethyl)phenyl)-6-methylpyridin-2-yl)methoxy)phenyl)acetic acid], the midpoint of inhibition, the IC50, lay at 24 nM.
The value for `Cc1ccc(S(=O)(=O)n2ncc3c(COc4ccccc4CC(=O)O)cc(-c4cccc([C@H](N)CO)c4)cc32)cc1` [Example 186, (S)-2-(2-((6-(3-(1-Amino-2-hydroxyethyl)phenyl)-1-tosyl-1H-indazol-4-yl)methoxy)phenyl)acetic acid] was 14 nM.
On to `NCc1cc(F)cc(-c2cccc(COc3ccccc3CC(=O)O)c2)c1` [Example 187, 2-(2-((3′-(Aminomethyl)-5′-fluoro-[1,1′-biphenyl]-3-yl)methoxy)phenyl)acetic acid], for which the midpoint of inhibition, the IC50, lay at 174 nM.

These data come from patent publication US20160145247A1, “Aminomethyl-Biaryl Derivatives Complement Factor D inhibitors and uses thereof” (NOVARTIS AG, priority 2013, published 2016).
